Test results: US11767341B2, “Lincosamide antibiotics and uses thereof” (President and Fellows of Harvard College, priority 2017, dated 2023)
≈ marks a conversion by molar mass, not a printed value. Where two headings read alike, the source gives them in different places.

Key:
Assay in all cases: MIC determination
Format in all cases: cell-based
E. coli GUEST131 (NDM-1) = conditions: Escherichia coli
E. coli MMX 0121 ΔTolC = conditions: Escherichia coli
[1] = system: P. aeruginosa MMX 3476 Δmex; conditions: Pseudomonas aeruginosa
[2] = system: S. pneumoniae TP 1579 (ermB + tet(M, O)); conditions: Streptococcus pneumoniae
P. aeruginosa ATCC 27853 = conditions: Pseudomonas aeruginosa, ATCC27853
[3] = system: S. pneumoniae UNT-039, MP-627, TP1517 (mefA); conditions: Streptococcus pneumoniae
[4] = system: S. pneumoniae UNT-038, MP-626, TP 160 (mefA); conditions: Streptococcus pneumoniae
[5] = system: S. aureus MP-513 clinical cErm; conditions: Staphylococcus aureus
[6] = system: S. aureus Micromyx USA 300; conditions: Staphylococcus aureus, USA300; S. aureus Micromyx USA 300; read-out: MIC
[7] = system: E. faecalis MMX 847 Macrolide-Resistant; conditions: Enterococcus faecalis
[8] = system: S. pyogenes UNT-014, MP-625 MacRes; conditions: Streptococcus pyogenes
[9] = system: E. coli MMX TolC parent strain; conditions: Escherichia coli
[10] = system: P. aeruginosa MMX Mex parent strain; conditions: Pseudomonas aeruginosa
S. pneumoniae ATCC 49619 = conditions: Streptococcus pneumoniae, ATCC49619; S. pneumoniae ATCC 49619; read-out: MIC
[11] = system: S. aureus MP-549 msr(a) USA 300; conditions: Staphylococcus aureus, USA300, S. aureus MP-549 msr(a) USA 300
S. aureus BAA 977 iErmA = conditions: Staphylococcus aureus, BAA977
C. difficile BAA 1805 = conditions: Clostridioides difficile, BAA1805; C. difficile BAA 1805; read-out: MIC
S. pyogenes ATCC 19615 = conditions: Streptococcus pyogenes, ATCC19615
[12] = system: S. pneumoniae MMX 3031 cMefA; conditions: Streptococcus pneumoniae, MMX3031CMEFA
S. aureus ATCC 29213 = conditions: Staphylococcus aureus
[13] = system: E. coli MP-74 LptD mutant; conditions: Escherichia coli
H. influenzae ATCC 49247 = conditions: Haemophilus influenzae, ATCC49247
E. coli ATCC 25922 = conditions: Escherichia coli
[14] = system: S. pyogenes MMX 946 Macrolide-Resistant; conditions: Streptococcus pyogenes, read-out: MIC
S. aureus MMX 3035 cErmA = conditions: Staphylococcus aureus, MMX3035CERMA
B. fragilis ATCC 25285 = conditions: Bacteroides fragilis, ATCC25285
[15] = system: S. pneumoniae MMX 3028 cErmB; conditions: Streptococcus pneumoniae, MMX3028CERMB
E. faecalis ATCC 29212 = conditions: Enterococcus faecalis
E. coli MP-9 ΔTolC = conditions: Escherichia coli
E. faecalis UNT-047 VRE = conditions: Enterococcus faecalis, VRE
[16] = system: S. aureus UNT-120, MP-619, NRS22 (USA 600, GISA); conditions: Staphylococcus aureus
[17] = system: S. aureus UNT96, NRS710, MP-618 (USA 100, Erythro >8); conditions: Staphylococcus aureus
[18] = system: S. aureus UNT-146, MP-620, TP 506 (ermA); conditions: Staphylococcus aureus
K. pneumoniae ATCC 10031 = conditions: Klebsiella pneumoniae, ATCC10031
[19] = S. pyogenes UNT-014, MP-625 MacRes, read-out: MIC
[20] = S. pyogenes ATCC 19615, read-out: MIC
[21] = ATCC29213, S. aureus ATCC 29213, read-out: MIC
[22] = K. pneumoniae ATCC 10031, read-out: MIC

| Compound | MIC (P. aeruginosa ATCC 27853) | MIC [3] | MIC [4] | MIC [5] | MIC (S. pneumoniae ATCC 49619) | MIC [11] | MIC (S. aureus BAA 977 iErmA) | MIC (S. pyogenes ATCC 19615; [20]) | MIC (S. aureus ATCC 29213; [21]) | MIC (E. coli ATCC 25922; ATCC25922) | MIC (E. coli MP-9 ΔTolC) | MIC (K. pneumoniae ATCC 10031) | also measured |
| --- | --- | --- | --- | --- | --- | --- | --- | --- | --- | --- | --- | --- | --- |
| CCC[C@@H]1C[C@@H](C(=O)N[C@@H]([C@H]2O[C@H](SC)[C@H](O)[C@@H](O)[C@H]2O)[C@H](C)Cl)N(C)C1 [Clindamycin, clindamycin, reference compound] | > 64 µg/mL | ≤ 0.0313 µg/mL | ≤ 0.0313 µg/mL | > 64 µg/mL |  |  |  |  |  |  |  |  | MIC (E. coli GUEST131 (NDM-1)): > 3 µg/mL; MIC (E. coli MMX 0121 ΔTolC): 4 µg/mL (≈ 9.41 µM); MIC [1]: > 64 µg/mL; MIC [2]: ≤ 0.0313 µg/mL; MIC [6]: 0.25 µg/mL (≈ 0.588 µM); MIC [7]: > 64 µg/mL; MIC [8, 19]: ≤ 0.0313 µg/mL; MIC [9]: > 64 µg/mL; MIC [10]: > 64 µg/mL |
| CSC1O[C@H]([C@H](NC(=O)[C@H]2NC[C@@H]3CC=CCO[C@H]32)[C@H](C)Sc2ccc(-c3cncnc3)cc2)C(O)[C@@H](O)[C@H]1O (some centres unmarked) [FSA-27049] | > 64 µg/mL |  |  | > 64 µg/mL | ≤ 0.06 µg/mL | 0.25 µg/mL (≈ 0.425 µM) | 2 µg/mL (≈ 3.4 µM) | ≤ 0.06 µg/mL | 1 µg/mL (≈ 1.7 µM) | > 64 µg/mL | 64 µg/mL (≈ 109 µM) |  | MIC (E. coli MMX 0121 ΔTolC): 8 µg/mL (≈ 13.6 µM); MIC [1]: > 64 µg/mL; MIC (C. difficile BAA 1805): 1 µg/mL (≈ 1.7 µM); MIC [12]: ≤ 0.06 µg/mL; MIC [13]: 32 µg/mL (≈ 54.4 µM); MIC [6]: 1 µg/mL (≈ 1.7 µM); MIC [7]: > 64 µg/mL; MIC [9]: > 64 µg/mL; MIC (H. influenzae ATCC 49247): 32 µg/mL (≈ 54.4 µM); MIC ([14]; S. pyogenes MMX 946 Macrolide-Resistant (MacRes)): 2 µg/mL (≈ 3.4 µM); MIC (S. aureus MMX 3035 cErmA): > 64 µg/mL; MIC (B. fragilis ATCC 25285): > 64 µg/mL; MIC [15]: 32 µg/mL (≈ 54.4 µM); MIC (E. faecalis ATCC 29212; ATCC29212): 64 µg/mL (≈ 109 µM); MIC [10]: > 64 µg/mL |
| CSC1O[C@H]([C@H](NC(=O)[C@H]2NC[C@@H]3C[C@@H](O)[C@@H](O)CO[C@H]32)[C@H](C)Cl)C(O)[C@@H](O)[C@H]1O (some centres unmarked) [FSA-501076] | > 64 µg/mL | 32 µg/mL (≈ 67.9 µM) | 64 µg/mL (≈ 136 µM) | > 64 µg/mL | 64 µg/mL (≈ 136 µM) | > 64 µg/mL | > 64 µg/mL |  |  | > 64 µg/mL | > 64 µg/mL | > 64 µg/mL | MIC (E. faecalis UNT-047 VRE): > 64 µg/mL; MIC (S. pyogenes ATCC 19615): > 64 µg/mL; MIC [16]: > 64 µg/mL; MIC (S. aureus ATCC 29213; ATCC29213): > 64 µg/mL; MIC [8]: > 64 µg/mL; MIC [17]: > 64 µg/mL; MIC [18]: > 64 µg/mL; MIC (E. faecalis ATCC 29212; ATCC29212): > 64 µg/mL |
| CSC1O[C@H]([C@H](NC(=O)[C@H]2NC[C@@H]3C[C@H]4OC(C)(C)O[C@H]4CO[C@H]32)[C@H](C)Cl)C(O)[C@@H](O)[C@H]1O (some centres unmarked) [FSA-501099] | > 64 µg/mL | 2 µg/mL (≈ 3.91 µM) | 16 µg/mL (≈ 31.3 µM) | > 64 µg/mL | 8 µg/mL (≈ 15.7 µM) | > 64 µg/mL | > 64 µg/mL | 16 µg/mL (≈ 31.3 µM) |  | > 64 µg/mL | > 64 µg/mL | > 64 µg/mL | MIC (E. faecalis UNT-047 VRE): > 64 µg/mL; MIC [16]: > 64 µg/mL; MIC (S. aureus ATCC 29213; ATCC29213): > 64 µg/mL; MIC [8, 19]: 29 µg/mL (≈ 56.7 µM); MIC [17]: > 64 µg/mL; MIC [18]: > 64 µg/mL; MIC (E. faecalis ATCC 29212; ATCC29212): > 64 µg/mL |
| CSC1O[C@H]([C@H](NC(=O)[C@H]2NC[C@@H]3CN(Cc4ccccc4)CCO[C@H]32)[C@H](C)Cl)C(O)[C@@H](O)[C@H]1O (some centres unmarked) [FSA-502002] | > 64 µg/mL | 0.125 µg/mL (≈ 0.236 µM) | 0.25 µg/mL (≈ 0.472 µM) | > 64 µg/mL | 0.25 µg/mL (≈ 0.472 µM) | 2 µg/mL (≈ 3.77 µM) | 2 µg/mL (≈ 3.77 µM) | 0.125 µg/mL (≈ 0.236 µM) | 2 µg/mL (≈ 3.77 µM) | > 64 µg/mL | > 64 µg/mL |  | MIC (E. faecalis UNT-047 VRE): > 64 µg/mL; MIC [16]: > 64 µg/mL; MIC [8, 19]: 0.125 µg/mL (≈ 0.236 µM); MIC [17]: > 64 µg/mL; MIC [18]: > 64 µg/mL; MIC (K. pneumoniae ATCC 10031; [22]): 64 µg/mL (≈ 121 µM); MIC (E. faecalis ATCC 29212; ATCC29212, read-out: MIC): 8 µg/mL (≈ 15.1 µM) |
| CCCN1CCO[C@@H]2[C@H](CN[C@@H]2C(=O)N[C@H]([C@H](C)Cl)[C@H]2OC(SC)[C@H](O)C(O)C2O)C1 (some centres unmarked) [FSA-503003] | > 64 µg/mL |  |  | > 64 µg/mL |  | 2 µg/mL (≈ 4.15 µM) | 4 µg/mL (≈ 8.3 µM) |  | 4 µg/mL (≈ 8.3 µM) | > 64 µg/mL | > 64 µg/mL | > 64 µg/mL |  |
| CCNC(=O)N1CCO[C@@H]2[C@H](CN[C@@H]2C(=O)N[C@H]([C@H](C)Cl)[C@H]2OC(SC)[C@H](O)C(O)C2O)C1 (some centres unmarked) [FSA-503004] | > 64 µg/mL |  |  | > 64 µg/mL |  | > 64 µg/mL | > 64 µg/mL |  |  | > 64 µg/mL | > 64 µg/mL | > 64 µg/mL | MIC (S. aureus ATCC 29213; ATCC29213): > 64 µg/mL |
| C=CCOC(=O)N1CCO[C@@H]2[C@H](CN[C@@H]2C(=O)N[C@H]([C@H](C)Cl)[C@H]2OC(SC)[C@H](O)[C@H](O)C2O)C1 (some centres unmarked) [FSA-503073] | > 64 µg/mL |  |  | > 64 µg/mL |  | 32 µg/mL (≈ 61.1 µM) | 64 µg/mL (≈ 122 µM) |  | 64 µg/mL (≈ 122 µM) | > 64 µg/mL | > 64 µg/mL | > 64 µg/mL |  |
| CSC1O[C@H]([C@H](NC(=O)[C@H]2NC[C@@H]3CN(Cc4ccc(N)nc4)CCO[C@H]32)[C@H](C)Cl)C(O)[C@@H](O)[C@H]1O (some centres unmarked) [FSA-504050] | > 64 µg/mL |  |  | > 64 µg/mL |  | 32 µg/mL (≈ 58.6 µM) | 64 µg/mL (≈ 117 µM) |  | 32 µg/mL (≈ 58.6 µM) | > 64 µg/mL | > 64 µg/mL | > 64 µg/mL |  |
| CSC1O[C@H]([C@H](NC(=O)[C@H]2NC[C@@H]3CN(Cc4ccnc(N)c4)CCO[C@H]32)[C@H](C)Cl)C(O)C(O)[C@H]1O (some centres unmarked) [FSA-504849] | > 64 µg/mL |  |  | > 64 µg/mL |  | 8 µg/mL (≈ 14.6 µM) | 32 µg/mL (≈ 58.6 µM) |  | 16 µg/mL (≈ 29.3 µM) | > 64 µg/mL | > 64 µg/mL | > 64 µg/mL |  |
| CSC1O[C@H]([C@H](NC(=O)[C@H]2NC[C@@H]3C[C@@H](c4ccccc4F)CCO[C@H]32)[C@H](C)Cl)C(O)[C@@H](O)[C@H]1O (some centres unmarked) [FSA-511100] |  | 1 µg/mL (≈ 1.88 µM) |  |  | 0.125 µg/mL (≈ 0.234 µM) | 0.25 µg/mL (≈ 0.469 µM) | 4 µg/mL (≈ 7.5 µM) | 0.25 µg/mL (≈ 0.469 µM) | 0.25 µg/mL (≈ 0.469 µM) |  | 32 µg/mL (≈ 60 µM) |  | MIC [13]: 16 µg/mL (≈ 30 µM); MIC ([5]; S. aureus MP-513 clinical cErm, read-out: MIC): > 256 µg/mL; MIC (H. influenzae ATCC 49247; H. influenzae ATCC 49247, read-out: MIC): 64 µg/mL (≈ 120 µM); MIC (E. coli ATCC 25922; ATCC25922, E. coli ATCC 25922, read-out: MIC): > 64 µg/mL; MIC (K. pneumoniae ATCC 10031; [22]): > 64 µg/mL; MIC ([14]; S. pyogenes MMX 946 MacRes): > 256 µg/mL; MIC ([15]; S. pneumoniae MMX 3028 cErmB, read-out: MIC): > 256 µg/mL; MIC (E. faecalis ATCC 29212; ATCC29212, read-out: MIC): > 256 µg/mL |
